According to patent US20200348288A1, “A method and a system for analysis of cardiomyocyte function” (IMEC VZW, priority 2017, published 2020):

Test system: cardiomyocytes
Assay: analysis of cardiomyocyte function (microelectrode array recording with simultaneous reflective lensfree imaging) before and after administering of a drug
Assay type: cell-based
Conditions: after vs before administering of drug, FIG. 5
Text: During or in-between measurements, a drug may be administered 210 to the cardiomyocytes in order to allow predicting of adverse effects on electrical and/or contractile function of the cardiomyocytes.
After drug treatment, analysis 212 on the cardiomyocytes is again performed. The electrical and/or contractile representations before and after drug treatment may be compared in order to predict adverse effects.
The method further comprises recording 304 electrical signals from the cardiomyocytes. The electrical signals may be acquired by the microelectrode array 112, which may be arranged in contact with the cardiomyocytes on the substrate 110. The electrical signals may further be transferred to readout circuitry 120 recording electrical signals received from the microelectrode array 112.
The method further comprises simultaneously with the recording 304, acquiring 306 a sequence of images. Each image may be acquired by detecting light wavefront information in reflective lensfree imaging and reconstructing the image of the cardiomyocytes based on the detected light wavefront information.
The method further comprises determining 308 an electrical representation relating to an intracellular and/or extracellular action potential, and/or an impedimetric electrical image of a cardiomyocyte based on the recorded electrical signals. […]

Cc1ccc2c(c1)C(=O)C1(O)CCN(c3ccccc3)C1=N2 (centres unmarked) [blebbistatin]
contractile function of the cardiomyocytes (contractile representation): severe adverse effects
electrical function of the cardiomyocytes (electrical representation): not affected
